Earlier results, collected in US20250357519A1, “APPLICATIONS OF O2-INSENSITIVE FORMATE DEHYDROGENASE” (UNIVERSITY OF MARYLAND, BALTIMORE, priority 2022, published 2025).
Where two headings read alike, the source gives them in different places.

Columns and labels:
[1] = molecular target: T1, Desulfovibrio vulgaris Hildenborough (DvH) W-FDH1, recombinant (W-FDH1^REC), large subunit DVU0587 SEQ ID NO: 29, small subunit DVU0588 SEQ ID NO: 30 (Nitratidesulfovibrio vulgaris, UniProt Q72EJ1); details: cited from earlier work
T1 construct: mature large subunit lacks Tat signal peptide; literature data of Oliveira et al. reanalysed
T1 sequence (Q72EJ1 36-1005): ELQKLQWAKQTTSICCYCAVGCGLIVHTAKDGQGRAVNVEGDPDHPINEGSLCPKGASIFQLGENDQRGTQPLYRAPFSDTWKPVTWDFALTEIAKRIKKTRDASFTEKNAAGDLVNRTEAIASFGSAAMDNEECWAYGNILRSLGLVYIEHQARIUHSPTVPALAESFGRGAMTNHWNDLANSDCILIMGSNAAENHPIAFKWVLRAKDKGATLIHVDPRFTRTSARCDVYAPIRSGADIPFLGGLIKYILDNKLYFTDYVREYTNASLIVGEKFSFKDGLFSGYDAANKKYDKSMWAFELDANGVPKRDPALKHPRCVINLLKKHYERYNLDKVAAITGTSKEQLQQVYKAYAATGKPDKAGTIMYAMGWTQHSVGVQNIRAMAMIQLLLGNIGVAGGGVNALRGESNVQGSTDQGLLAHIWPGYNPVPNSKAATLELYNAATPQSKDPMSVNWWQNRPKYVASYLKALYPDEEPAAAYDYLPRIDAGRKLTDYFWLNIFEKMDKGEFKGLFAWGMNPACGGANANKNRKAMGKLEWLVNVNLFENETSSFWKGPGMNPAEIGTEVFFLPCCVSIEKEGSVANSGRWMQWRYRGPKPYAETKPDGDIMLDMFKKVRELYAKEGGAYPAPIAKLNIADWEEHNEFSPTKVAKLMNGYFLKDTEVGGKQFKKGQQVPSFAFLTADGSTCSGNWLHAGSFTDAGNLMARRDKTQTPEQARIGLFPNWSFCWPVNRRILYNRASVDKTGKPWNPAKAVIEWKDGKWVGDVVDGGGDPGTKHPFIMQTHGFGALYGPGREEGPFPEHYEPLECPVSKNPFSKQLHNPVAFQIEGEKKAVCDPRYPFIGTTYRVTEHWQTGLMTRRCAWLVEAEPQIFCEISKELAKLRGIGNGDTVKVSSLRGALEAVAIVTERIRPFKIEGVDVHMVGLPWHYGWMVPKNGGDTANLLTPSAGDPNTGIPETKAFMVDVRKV
T1 sequence (Q72EJ0 1-236 partner): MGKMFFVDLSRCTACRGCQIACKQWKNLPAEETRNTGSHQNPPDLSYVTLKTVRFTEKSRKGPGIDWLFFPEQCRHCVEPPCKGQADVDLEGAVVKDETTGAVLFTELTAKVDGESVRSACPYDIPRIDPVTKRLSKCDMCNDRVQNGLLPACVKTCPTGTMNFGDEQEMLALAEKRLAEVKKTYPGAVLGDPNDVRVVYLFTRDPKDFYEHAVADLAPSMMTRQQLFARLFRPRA

[2] = system: Desulfovibrio alaskensis (Da) W-FDH1, wild-type natively-purified (W-FDH1^WT); details: pH 8.0, 37 °C, 7.5 mM BV, 35 nM enzyme; Mota (2011); cited from earlier work
[3] = system: Desulfovibrio desulfuricans (Dd) Mo-FDH3, wild-type natively-purified (Mo-FDH3^WT); details: cited from earlier work
[4] = pH 7.6, RT, 2 mM BV, 1.4 nM enzyme, Oliveira et al (2020)
[5] = pH 7.6, 37 °C, 7.5 mM BV, 35 nM enzyme, Rivas et al (2007)
[6] = pH 8.0, 22 °C, 5 mM BV, 1 nM enzyme, Maia et al (2016)
[7] = pH 8.0, 37 °C, 7.5 mM BV, 35 nM enzyme, Mota (2011)

O=CO [formate]
kcat ([1]; pH 7.6, RT, 2 mM BV, 1.4 nM enzyme, Alvarez-Malmagro et al (2021)): 1144 s⁻¹
kcat ([1]; pH 7.6, RT, 2 mM BV, 1.4 nM enzyme, Miller et al (2018)): 1100 s⁻¹
Km [1, 4]: 16.9 ± 2.8 µM
kcat [1, 4]: 1310 ± 50 s⁻¹
kcat ([1]; pH 7.6, RT, 2 mM BV, 1.4 nM enzyme, Szczesny et al (2019)): 940 s⁻¹
Km ([1]; value reported by Oliveira et al., as cited in text, BV): 17 µM
Km [2]: 10 µM
kcat [2]: 241 s⁻¹
Km [3, 5]: 65 ± 8 µM
kcat [3, 5]: 357 ± 18 s⁻¹
Km [3, 6]: 57 µM
kcat [3, 6]: 543 s⁻¹
Km [3, 7]: 64 µM
kcat [3, 7]: 347 s⁻¹
